Test results published in patent publication US20040029758A1 (priority 2000, published 2004).

System: Legionella

In the case of OCl [sodium hypochlorite], the “Legionella test of bath water” value is reported as “detected” and the “Count of the bacteria of the genus Legionella in bath water” value (start 300 CFU/100 ml, free residual chlorine max 2 mg/l for 2 hours, then 3 days at sodium hypochlorite 0.4 mg/l, 2000 bathers per day) is reported as 1300 CFU/100 ml.
